Measurements taken from US7026282B1, “Peptide antagonists of the human urokinase receptor and method for selecting them” (Cancerforskningsfonden AF 1989 (Fonden Til Fremme AF …, priority 1998, dated 2006).
Entries after “also recorded” stand apart in the source; their conditions may differ. Positions of bridges follow the written chain, without caps; N, C: chain ends. Non-standard residues stand in square brackets, D forms with d. Residues, ends and D or L forms follow the SMILES beside them. Chains are numbered I, II in the order given. No end group written: not given here. Cha = N[C@@H](CC1CCCCC1)C(=O)O; βAla = NCCC(=O)O

B1: AE118 (peptide)
peptide 1: D[Cha]F[dS][dR]YLWSGK
peptide 2: D[Cha]F[dS][dR]YLWSG
modifications: also: lactam at chain A 11 at chain B 10 to a chain's C-terminus
notes: also called [DChaFsrYLWSG]2-K; dimer AE118

What was measured:
[1] = molecular target: T1, neuramimidase-treated human suPAR (soluble recombinant uPAR) (Homo sapiens, UniProt Q03405); assay: Biacore Binding Assay (surface plasmon resonance), ligand binding to immobilised suPAR; settings: for koff: Biacore, 5° C., immobilised suPAR, read-out: kdiss (dissociation rate constant, off-rate); for Relative kdiss: relative to the Growth Factor Domain of uPA (GFD = 1.0)
T1 construct: A soluble recombinant variant of human uPAR (suPAR) was expressed in Chinese hamster ovary (dhfr) cells; made in house; host or cells: Chinese hamster ovary (dhfr) cells
Procedure: Association rate constants (kass), dissociation rate constants (kdiss) and equilibrium binding constants (kd) for various synthetic peptides and receptor binding derivatives of human uPA were determined by surface plasmon resonance (R. Karlsson et al. (1991) J. Immunol. Meths. 145:229–240) using a BIAcore2000™ instrument (Pharmacia Biosensor, Uppsala, Sweden). Due to the low isoelectric point of uPAR (pI≈4.5) terminal sialic acid residues were removed from its N-linked carbohydrates to facilitate chemical immobilisation on the sensor chip. This was accomplished by incubating purified suPAR (1 mg/ml in 50 mM phosphate, 150 mM NaCl, pH 7.4) with 5 μg/ml neuramimidase for 4 hours at 37° C. […] Coupling of the neuramimidase-treated suPAR to a BIAcore sensor chip was achieved by injection of 20 μg/ml suPAR in 10 mM sodium acetate pH 5.0 for 6 minutes at a flow rate of […] per minute using a carboxymethylated dextran matrix (CM5 sensor chip) preactivated with N-hydroxysuccinimide/N-ethyl-N′-[3-([…])propyl]carbodiimide according to the manufacturer's recommendations. Approximately 1,500–2,000 resonance units (RU) were immobilised by this procedure (corresponding to 1–2 ng suPAR/mrn^2).
Sensorgrams (RU versus time) were recorded (FIG. 2) at a flow rate of 10 μl per min at 5° C. using several different concentrations of the ligand (synthetic peptides, uPA, the amino-terminal fragment (ATF) of uPA, or the growth factor domain (GFD) of uPA) in the range of 10 to 1000 nM in running buffer (10 mM HEPES, 150 mM NaCl, 3 mM EDTA (pH 7.4) including 0.005% surfactant P-20). Stock solutions of peptides from combinatorial chemistry were made in DMSO (10 mg peptide/ml DMSO). The sensor chip was regenerated at the end of each run by injection of 0.1 M acetic acid, 0.5 M NaCl. Data obtained from parallel mock coupled flow cells (subjected to the coupling procedure in the presence of buffer only) served as blank sensorgrams for subtraction of changes in bulk refractive index. The sensorgrams obtained were analysed by non-linear least squares fitting using BIAevaluation 2.0 software (Pharmacia Biosensor, Uppsala, Sweden) assuming single-site association and dissociation models.
Purified human suPAR (1 mg/ml in 50 mM phosphate, 150 mM NaCl, pH 7.4) was incubated with 5 μg/ml neuramimidase for 4 hours at 37° C.
In order to couple the neuramimidase-treated suPAR to a BIAcore sensor chip, 20 μg/ml suPAR in 10 mM sodium acetate (pH 5.0) was injected for 6 minutes at a flow rate of 5 μl per minute using a carboxymethylated dextran matrix (CM5 sensor chip), thereby immobilising approximately 1,500–2,000 resonance units (RU), which correspond to 1–2 ng suPAR/mm^2. The CM5 sensor chip was preactivated with N-hydroxysuccinimide/N-ethyl-N′-[3-([…])propyl]carbodiimide in accordance with the manufacturer's recommendations.
Surface plasmon resonance sensorgrams (RU versus time) were recorded at a flow rate of 10 μl per min at 5° C. using several different concentrations of the ligand (i.e. the relevant peptide or GFD) in the range from 10 to 1000 nM in running buffer (10 mM HEPES, 150 mM NaCl, 3 mM EDTA (pH 7.4) including 0.005% surfactant P-20).
The sensor chip was regenerated at the end of each run by injection of 0.1 M acetic acid, 0.5 M NaCl.
Data from parallel mock coupled flow cells (subjected to the coupling procedure in the presence of buffer only) served as blank sensorgrams for subtraction of changes in bulk refractive index.
The obtained sensorgrams were analysed by non-linear least squares fitting using BIAevaluation 2.0 software (Pharmacia Biosensor, Uppsala, Sweden) assuming single-site ssociation and dissociation models.

[2] = molecular target: cell-surface uPAR on monolayer cultures of human MDA-MB-231 breast cancer cells (Homo sapiens, UniProt Q03405); assay: Cell binding experiments with 125I-labelled human ATF (uPA/uPAR Binding Assay)
Sequence of cell-surface uPAR on monolayer cultures of human MDA-MB-231 breast cancer cells (Q03405 23-305): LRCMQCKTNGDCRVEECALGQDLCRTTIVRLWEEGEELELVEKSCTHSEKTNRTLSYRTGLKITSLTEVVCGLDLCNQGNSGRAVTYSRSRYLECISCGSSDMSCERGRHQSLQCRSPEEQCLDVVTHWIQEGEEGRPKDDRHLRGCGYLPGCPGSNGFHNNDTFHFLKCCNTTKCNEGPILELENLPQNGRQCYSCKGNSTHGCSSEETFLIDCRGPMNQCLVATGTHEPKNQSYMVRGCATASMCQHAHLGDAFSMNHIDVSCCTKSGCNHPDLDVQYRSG
Procedure: The peptides were tested for their ability to inhibit binding of radio-labelled amino terminal fragment (ATF) of human uPA to monolayer cultures of human MDA-MB-231 breast cancer cells.
MDA-MB-231 BAG cells were harvested by trypsin/EDTA treatment and added to 5% FCS supplemented medium in 24 well cluster plates at a cell density of 100,000 cells per well or as indicated otherwise. For background estimation, wells without cells were included in order to measure binding of ^125I-labelled ligand to the plastic. Next day the adherent monolayers were washed twice in binding-buffer (0.1% bovine serum albumin (BSA; Fraction V, Sigma) and 5 mM Hepes in Eagles MEM supplemented with Glutamax-1, pH 7.4). Before binding experiments, the cells were subjected to acid treatment to liberate receptor-bound endogenous uPA. Each culture well was incubated for 3 min at 23° C. with 200 μL of 0.05 M glycine-HCl, 0.1 M NaCl, pH 3.0, after which 200 μL of 0.5 M Hepes, 0.1 M NaCl pH 7.5 was added to neutralize the acid buffer. The wells were then emptied and washed once with binding buffer. Various competitors diluted in binding buffer were then added to the wells, followed by a pre-incubation at 37° C. for 15 min. Finally, ^125I-labelled ligand was added to each well at a final concentration of 1 nM. […] Aliquots from the wells were finally measured for radioactivity on a γ-counter.

[3] = Peptide stability in mouse serum ex vivo, read out by ATF cell-binding inhibition; type: in vitro ADME; settings: 10% mouse serum, up to 24 hours, 37° C.
Procedure: Mouse blood was collected from anaesthetised mice (femal nu/nu-META/Bom (Bomholtgaard, Ry, Denmark)) by cardiac puncture. The blood samples were allowed to clot for 30 min at room temperature, followed by centrifugation at 1,000×g for 10 min at 20° C., and the sera were sterile filtered using 0.8 μm/0.2 μm filters (Acrodisc PF, Gelman Science, MI) and then stored at 4° C. until use. The peptide antagonists were added to fresh pooled mouse serum at the indicated concentrations (FIG. 5) and incubated at 37° C. for different periods, between 0 hours and 24 hours. Serum incubated samples were diluted 1:10 in binding buffer (0.1% bovine serum albumin and 5 mM Hepes in Eagles MEM supplemented with Glutamax-1, pH 7.4). Subsequently, cell binding experiments in the presence of ^125I-labelled human ATF were performed in duplicates as above, by preincubating MDA-MB-231 BAG cells at 37° C. 15 min with the 1:10 diluted serum incubated samples ± peptides. In parallel, peptides diluted in binding buffer alone were included as controls.
AE118 and AE78 (for comparison) were incubated at 37° C. in the presence of 10% mouse serum for different time intervals, up to 24 hours. The incubation mixtures were tested for their ability to inhibit binding of radio-labelled human uPA amino terminal fragment (ATF) to monolayer cultures of human MDA-MB-231 breast cancer cells, as described in Example 7.

[4] = Pharmacokinetic experiment: functional peptide in mouse serum after i.p. injection; type: in vivo; settings: 62.5 mg/kg, 1 to 24 hours
Procedure: Female nu/nu-META/Bom mice were injected intraperitoneally (i.p) with a solution of the peptide AE 120 (6.25 mg/ml in 0.5% (w/v) poloxamer 237 in PBS, pH 7.3) at a dose of 62.5 mg/kg mouse weight. At different time points between 1 hour and 24 hours, blood was collected from anaesthetised mice by cardiac puncture. The blood samples were allowed to clot for 30 min at room temperature, followed by centrifugation at 1,000×g for 10 min at 20° C., and the sera were stored frozen at −80° C. prior to assay. The presence of functional peptide antagonists in serum was determined by diluting the serum samples 1:10 with binding buffer (0.1% bovine serum albumin and 5 mM Hepes in Eagles MEM supplemented with Glutamax-1, pH 7.4) and analysing the samples in cell binding experiments with MDA-MB-231 BAG cells and ^125I-labelled human ATF as described in Example 7. As an internal standard, AE120 was added exogenously to pooled mouse sera at final concentrations of 12.5 nM, 25 nM, 125 nM and 250 nM.

[5] = Mouse tolerance of peptide dosing; type: in vivo; settings: 4 i.p. injections 8 hours apart, 1.38 mg each, total 5.52 mg per mouse
Procedure: Mice were given a series of 4 intraperitoneal injections, spaced 8 hours apart, of peptide AE120 dispersed in a poloxamer formulation containing 2.9% DMSO. Each injection delivered 1.38 mg of peptide in 200 μL of formula, so that each mouse received a total of 5.52 mg over the 24-hour study period.

uPAR-ATF interaction = uPAR-ATF interaction (Homo sapiens, UniProt Q03405); settings: read-out: apparent inhibition constant; cited from earlier work
Sequence of uPAR-ATF interaction (Q03405 23-305 limits assumed): as the sequence (Q03405 23-305) above

[6] = molecular target: soluble recombinant variant of human uPAR (suPAR) (human) (UniProt Q03405); assay: SPR (Biacore), ligand over immobilised neuramimidase-treated human suPAR
Sequence of soluble recombinant variant of human uPAR (suPAR) (human) (Q03405 23-299, change not shown): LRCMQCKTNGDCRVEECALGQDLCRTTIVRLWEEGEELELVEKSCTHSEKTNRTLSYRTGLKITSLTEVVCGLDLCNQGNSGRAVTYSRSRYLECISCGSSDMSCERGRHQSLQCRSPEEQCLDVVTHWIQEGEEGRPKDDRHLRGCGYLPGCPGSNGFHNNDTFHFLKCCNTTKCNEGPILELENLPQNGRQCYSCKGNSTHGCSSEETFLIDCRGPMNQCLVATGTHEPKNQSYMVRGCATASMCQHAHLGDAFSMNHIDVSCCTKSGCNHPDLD

[7] = molecular target: T2, human uPAR on the surface of human MDA-MB-231 breast cancer cells (human, UniProt Q03405 23-305); assay: competition with 1 nM ^125I-labelled human ATF for binding to MDA-MB-231 cell monolayers
T2 construct: whole, on cells; also called cell-surface uPAR
T2 sequence (Q03405 23-305): as the sequence (Q03405 23-305) above
Procedure: Next day the adherent monolayers were washed twice in binding-buffer (0.1% bovine serum albumin (BSA; Fraction V, Sigma) and 5 mM Hepes in Eagles MEM supplemented with Glutamax-1, pH 7.4). Before binding experiments, the cells were subjected to acid treatment to liberate receptor-bound endogenous uPA. Each culture well was incubated for 3 min at 23° C. with 200 µL of 0.05 M glycine-HCl, 0.1 M NaCl, pH 3.0, after which 200 µL of 0.5 M Hepes, 0.1 M NaCl pH 7.5 was added to neutralize the acid buffer. The wells were then emptied and washed once with binding buffer. Various competitors diluted in binding buffer were then added to the wells, followed by a pre-incubation at 37° C. for 15 min. […] Cells were incubated at 4° C. for 60 min, and then washed three times in binding-buffer. Subsequently, the cells were lysed by addition of 1 N NaOH to the wells. Aliquots from the wells were finally measured for radioactivity on a γ-counter.

[8] = molecular target: soluble recombinant variant of human uPAR (suPAR) (human) (UniProt Q03405); assay: SPR (Biacore), immobilised human suPAR

Molecule	koff [1] [s⁻¹]	Relative kdiss [1]	ability to inhibit ATF binding after incubation in mouse serum (stability) [3]	Relative kdiss (relative to GFD) [6]	IC50 [7] [nM]	further results
CC(C)C[C@H](NC(=O)[C@H](Cc1ccc(O)cc1)NC(=O)[C@@H](CCCNC(=N)N)NC(=O)[C@@H](CO)NC(=O)[C@H](Cc1ccccc1)NC(=O)[C@H](CC1CCCCC1)NC(=O)[C@@H](N)CC(=O)O)C(=O)N[C@@H](Cc1c[nH]c2ccccc12)C(=O)N[C@@H](CO)C(=O)O [AE105, DchaFsrYLWS]	0.00021	1.5				off-rate, fold slower than AE78 ([1]; compared with AE78): 48 fold; IC50 ([2]; 1 nM 125I-labelled human ATF, 0.1% BSA, read-out: IC50, inhibition of the binding of ATF to MDA-MB-231 cells): 10 nM; effectiveness in inhibiting radio-labelled human ATF binding to cell-surface uPAR ([2]; 0.1% bovine serum albumin): more effective than the reference peptide AE78
CC(C)C[C@H](NC(=O)[C@H](Cc1ccc(O)cc1)NC(=O)[C@@H](CCCNC(=N)N)NC(=O)[C@@H](CO)NC(=O)[C@H](Cc1ccccc1)NC(=O)[C@H](CC1CCCCC1)NC(=O)[C@@H](N)CC(=O)O)C(=O)N[C@@H](Cc1c[nH]c2ccccc12)C(=O)N[C@@H](CO)C(=O)NCC(=O)NCCCC[C@H](NC(=O)CNC(=O)[C@H](CO)NC(=O)[C@H](Cc1c[nH]c2ccccc12)NC(=O)[C@H](CC(C)C)NC(=O)[C@H](Cc1ccc(O)cc1)NC(=O)[C@@H](CCCNC(=N)N)NC(=O)[C@@H](CO)NC(=O)[C@H](Cc1ccccc1)NC(=O)[C@H](CC1CCCCC1)NC(=O)[C@@H](N)CC(=O)O)C(=O)O [AE118, [DChaFsrYLWSG]2-K] (I: H-D[Cha]F[dS][dR]YLWSGK-OH / II: H-D[Cha]F[dS][dR]YLWSG; amide I:11-II:C; N-terminus and C-terminus assumed)	4e-05		only a slight reduction; also recorded: more resistant than AE78			
CC(C)C[C@H](NC(=O)[C@H](Cc1ccc(O)cc1)NC(=O)[C@@H](CCCNC(=N)N)NC(=O)[C@@H](CO)NC(=O)[C@H](Cc1ccccc1)NC(=O)[C@H](CC1CCCCC1)NC(=O)[C@@H](N)CC(=O)O)C(=O)N[C@@H](Cc1c[nH]c2ccccc12)C(=O)N[C@@H](CO)C(=O)NCC(=O)NCCCC[C@H](NC(=O)CCNC(=O)CNC(=O)[C@H](CO)NC(=O)[C@H](Cc1c[nH]c2ccccc12)NC(=O)[C@H](CC(C)C)NC(=O)[C@H](Cc1ccc(O)cc1)NC(=O)[C@@H](CCCNC(=N)N)NC(=O)[C@@H](CO)NC(=O)[C@H](Cc1ccccc1)NC(=O)[C@H](CC1CCCCC1)NC(=O)[C@@H](N)CC(=O)O)C(=O)O [AE120, α-[DChaFsrYLWSGβA]-ε-[DChaFsrYLWSG]-K] (I: H-D[Cha]F[dS][dR]YLWSG[βAla]K-OH / II: H-D[Cha]F[dS][dR]YLWSG; amide I:12-II:C)	3e-05		slight reduction			activity of peptide antagonist in mouse serum after dosing [4]: retained its activity in mouse serum for several hours; tolerance: effect on behaviour or well-being [5]: no visible sign of any effect on the behaviour or well-being of the mice
AEPMPHSLNFSQYLWYT [AE78, reference compound]	0.0101	72.1	lost the majority of its inhibitory activity			Ki (uPAR-ATF interaction): 10 nM
B1				0.28	2	fold slower off-rate than the monomer AE105 [8]: 5 to 7 times
AEPMPHSLNFSQYLWYT (also called Clone 20) [AE78]				72.1	200	
